Drawing on ChEMBL document CHEMBL1201862, “PubChem BioAssay data set” (2004), this text covers EC50, IC50 and AC50 for eight compounds.

In experiment [1] the target is T1, Heat shock factor protein 1 (Mus musculus, UniProt P38532).
T1 sequence (P38532 whole entry): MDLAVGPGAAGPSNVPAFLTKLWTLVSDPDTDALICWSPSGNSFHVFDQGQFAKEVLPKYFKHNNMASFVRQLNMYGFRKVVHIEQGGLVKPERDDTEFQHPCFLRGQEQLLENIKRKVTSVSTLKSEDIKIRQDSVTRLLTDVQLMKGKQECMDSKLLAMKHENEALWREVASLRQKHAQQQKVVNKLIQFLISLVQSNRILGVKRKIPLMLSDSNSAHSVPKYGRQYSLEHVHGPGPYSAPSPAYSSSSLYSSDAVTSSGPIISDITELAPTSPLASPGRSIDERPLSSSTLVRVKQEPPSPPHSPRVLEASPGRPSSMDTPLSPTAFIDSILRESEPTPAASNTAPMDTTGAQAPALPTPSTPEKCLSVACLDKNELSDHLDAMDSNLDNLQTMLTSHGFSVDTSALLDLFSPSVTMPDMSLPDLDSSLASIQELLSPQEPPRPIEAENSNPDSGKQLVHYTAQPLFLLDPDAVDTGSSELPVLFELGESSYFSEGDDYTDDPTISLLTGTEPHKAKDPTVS
The experiment can be described thus: enhancement of HSF1-driven luciferase signal – cell-based, NIH3T3, luminescence, dose retest, confirmation (AID 435004).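 Also: stress induced by proteasome inhibitor MG132 added 30 min after compound; luciferase reporter driven by HSF1 response element in NIH3T3 cells; actives raise luminescence as potentiators of the MG132 stress response.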 The format is functional.

The target in a further experiment is T2, Streptokinase A (Streptococcus pyogenes serotype M1, UniProt P10520).
T2 sequence (P10520 whole entry): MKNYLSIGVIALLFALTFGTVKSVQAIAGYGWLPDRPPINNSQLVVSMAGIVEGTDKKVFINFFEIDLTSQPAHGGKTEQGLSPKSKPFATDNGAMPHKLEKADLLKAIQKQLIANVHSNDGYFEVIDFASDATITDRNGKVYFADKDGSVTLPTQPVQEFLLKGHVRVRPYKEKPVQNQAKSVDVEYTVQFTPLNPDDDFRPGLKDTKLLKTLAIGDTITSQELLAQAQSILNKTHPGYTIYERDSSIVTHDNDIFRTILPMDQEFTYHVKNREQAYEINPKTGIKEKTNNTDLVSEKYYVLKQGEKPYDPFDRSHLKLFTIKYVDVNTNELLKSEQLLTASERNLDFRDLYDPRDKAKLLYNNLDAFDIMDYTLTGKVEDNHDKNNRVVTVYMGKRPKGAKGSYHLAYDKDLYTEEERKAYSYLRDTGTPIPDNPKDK
Put plainly: viability-normalized secreted streptokinase activity reduction – plasminogen activation absorbance, OD405, dose response (AID 1914).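 Also: secreted streptokinase activity via plasminogen activation per viability signal from cell pellet.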 Type of experiment: functional, Streptococcus pyogenes M1 GAS.

The target of experiment [2] is Peroxisome proliferator-activated receptor gamma/Nuclear receptor corepressor 2 (Homo sapiens, UniProt P37231+Q9Y618). The format is functional.
Chain of Peroxisome proliferator-activated receptor gamma/Nuclear receptor corepressor 2 (P37231 whole entry): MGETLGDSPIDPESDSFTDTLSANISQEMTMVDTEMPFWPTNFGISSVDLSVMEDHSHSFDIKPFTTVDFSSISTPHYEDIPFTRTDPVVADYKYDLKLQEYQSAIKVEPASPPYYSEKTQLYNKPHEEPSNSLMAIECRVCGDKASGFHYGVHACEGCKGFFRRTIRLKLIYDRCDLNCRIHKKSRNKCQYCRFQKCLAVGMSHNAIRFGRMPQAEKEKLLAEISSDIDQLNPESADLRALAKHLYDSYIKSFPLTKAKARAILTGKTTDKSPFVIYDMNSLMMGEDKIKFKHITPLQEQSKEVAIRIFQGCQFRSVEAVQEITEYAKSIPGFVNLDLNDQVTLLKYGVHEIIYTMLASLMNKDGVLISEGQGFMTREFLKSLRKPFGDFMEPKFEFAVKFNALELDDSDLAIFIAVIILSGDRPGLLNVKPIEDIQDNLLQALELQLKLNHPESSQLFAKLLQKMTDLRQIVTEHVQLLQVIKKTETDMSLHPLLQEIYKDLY
Chain of Peroxisome proliferator-activated receptor gamma/Nuclear receptor corepressor 2 (Q9Y618 whole entry): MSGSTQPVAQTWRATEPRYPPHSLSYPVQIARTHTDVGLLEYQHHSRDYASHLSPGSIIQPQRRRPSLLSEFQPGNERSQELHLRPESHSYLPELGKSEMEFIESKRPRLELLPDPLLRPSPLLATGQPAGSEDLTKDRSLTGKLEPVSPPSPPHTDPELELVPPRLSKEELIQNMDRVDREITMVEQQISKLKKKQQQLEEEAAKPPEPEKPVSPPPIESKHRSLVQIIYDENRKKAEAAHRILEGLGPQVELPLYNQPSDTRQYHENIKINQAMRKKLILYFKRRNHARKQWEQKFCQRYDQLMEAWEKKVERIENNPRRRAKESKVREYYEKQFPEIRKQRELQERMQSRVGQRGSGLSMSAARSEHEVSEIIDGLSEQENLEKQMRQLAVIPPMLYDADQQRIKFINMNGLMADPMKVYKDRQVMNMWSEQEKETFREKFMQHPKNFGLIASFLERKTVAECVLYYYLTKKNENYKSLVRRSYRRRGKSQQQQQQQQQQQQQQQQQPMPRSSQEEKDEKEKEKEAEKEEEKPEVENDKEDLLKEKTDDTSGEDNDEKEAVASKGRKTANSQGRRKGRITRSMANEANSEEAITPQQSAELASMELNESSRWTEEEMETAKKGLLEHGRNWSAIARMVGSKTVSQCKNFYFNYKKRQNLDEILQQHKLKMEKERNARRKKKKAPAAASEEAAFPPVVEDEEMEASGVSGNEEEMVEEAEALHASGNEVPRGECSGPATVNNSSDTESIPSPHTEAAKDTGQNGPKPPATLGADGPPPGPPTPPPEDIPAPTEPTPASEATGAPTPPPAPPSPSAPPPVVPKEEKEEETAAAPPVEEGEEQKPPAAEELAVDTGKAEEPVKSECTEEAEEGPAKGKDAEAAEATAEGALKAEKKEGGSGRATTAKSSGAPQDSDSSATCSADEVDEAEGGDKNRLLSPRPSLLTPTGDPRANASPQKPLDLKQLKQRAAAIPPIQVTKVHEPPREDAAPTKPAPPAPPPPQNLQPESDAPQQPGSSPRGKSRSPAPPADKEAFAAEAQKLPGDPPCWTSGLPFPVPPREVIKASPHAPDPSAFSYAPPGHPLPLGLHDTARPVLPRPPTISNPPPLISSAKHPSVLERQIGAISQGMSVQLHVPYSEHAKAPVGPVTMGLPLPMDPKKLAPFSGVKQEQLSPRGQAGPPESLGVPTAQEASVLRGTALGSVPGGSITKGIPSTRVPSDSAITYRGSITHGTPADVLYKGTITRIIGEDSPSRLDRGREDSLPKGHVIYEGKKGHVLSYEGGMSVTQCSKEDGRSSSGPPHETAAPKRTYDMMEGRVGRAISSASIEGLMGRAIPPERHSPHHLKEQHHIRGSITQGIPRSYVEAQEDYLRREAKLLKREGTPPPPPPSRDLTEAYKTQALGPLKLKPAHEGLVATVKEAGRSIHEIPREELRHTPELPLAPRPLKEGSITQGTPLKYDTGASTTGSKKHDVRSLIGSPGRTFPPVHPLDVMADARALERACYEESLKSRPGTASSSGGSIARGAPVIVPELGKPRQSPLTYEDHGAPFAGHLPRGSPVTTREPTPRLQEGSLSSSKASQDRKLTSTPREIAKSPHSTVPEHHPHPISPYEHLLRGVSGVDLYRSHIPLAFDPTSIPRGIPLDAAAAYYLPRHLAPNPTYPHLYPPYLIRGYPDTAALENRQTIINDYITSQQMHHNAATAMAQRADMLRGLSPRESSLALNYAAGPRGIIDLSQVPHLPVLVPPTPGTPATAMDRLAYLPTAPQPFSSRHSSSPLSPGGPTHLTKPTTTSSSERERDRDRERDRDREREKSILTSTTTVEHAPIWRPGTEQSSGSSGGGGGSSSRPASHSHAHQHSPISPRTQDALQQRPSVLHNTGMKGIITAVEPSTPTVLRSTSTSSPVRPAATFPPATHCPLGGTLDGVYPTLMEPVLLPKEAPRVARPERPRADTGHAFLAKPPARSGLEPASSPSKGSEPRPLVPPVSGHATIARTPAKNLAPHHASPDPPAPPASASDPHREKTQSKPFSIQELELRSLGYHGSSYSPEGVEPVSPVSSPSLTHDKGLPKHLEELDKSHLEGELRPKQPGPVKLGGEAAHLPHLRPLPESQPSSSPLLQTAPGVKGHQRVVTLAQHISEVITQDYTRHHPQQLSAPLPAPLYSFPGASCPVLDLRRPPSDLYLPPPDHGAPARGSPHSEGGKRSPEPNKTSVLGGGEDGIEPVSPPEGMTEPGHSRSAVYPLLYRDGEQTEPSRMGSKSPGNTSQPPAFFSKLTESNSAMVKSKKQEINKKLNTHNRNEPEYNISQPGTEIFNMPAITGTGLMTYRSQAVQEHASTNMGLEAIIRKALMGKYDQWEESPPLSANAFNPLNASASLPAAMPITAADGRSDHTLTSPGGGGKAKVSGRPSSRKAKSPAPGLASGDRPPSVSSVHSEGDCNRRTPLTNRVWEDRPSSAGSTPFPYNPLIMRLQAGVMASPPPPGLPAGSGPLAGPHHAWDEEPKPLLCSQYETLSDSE
The target of experiment [3] is Photoreceptor-specific nuclear receptor (Homo sapiens, UniProt Q9Y5X4). Type of experiment: functional.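 Also: potency for compounds that break the NR2E3 corepressor complex and count as activators.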
Chain of Photoreceptor-specific nuclear receptor (Q9Y5X4 whole entry): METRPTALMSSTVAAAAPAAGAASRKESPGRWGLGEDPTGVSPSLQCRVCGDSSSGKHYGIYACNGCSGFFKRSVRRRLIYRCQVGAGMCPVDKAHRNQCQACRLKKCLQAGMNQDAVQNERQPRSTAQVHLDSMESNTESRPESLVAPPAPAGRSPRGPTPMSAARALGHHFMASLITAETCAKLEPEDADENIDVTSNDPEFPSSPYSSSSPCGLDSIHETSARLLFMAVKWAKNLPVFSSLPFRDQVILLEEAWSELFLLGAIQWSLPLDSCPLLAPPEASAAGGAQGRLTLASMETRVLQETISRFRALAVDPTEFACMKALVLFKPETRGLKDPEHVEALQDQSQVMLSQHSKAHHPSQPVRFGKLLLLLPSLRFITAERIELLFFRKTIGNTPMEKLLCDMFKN
Experiment [4] has as its target T3, Alkaline phosphatase, tissue-nonspecific isozyme (Homo sapiens, UniProt P05186).
T3 sequence (P05186 whole entry): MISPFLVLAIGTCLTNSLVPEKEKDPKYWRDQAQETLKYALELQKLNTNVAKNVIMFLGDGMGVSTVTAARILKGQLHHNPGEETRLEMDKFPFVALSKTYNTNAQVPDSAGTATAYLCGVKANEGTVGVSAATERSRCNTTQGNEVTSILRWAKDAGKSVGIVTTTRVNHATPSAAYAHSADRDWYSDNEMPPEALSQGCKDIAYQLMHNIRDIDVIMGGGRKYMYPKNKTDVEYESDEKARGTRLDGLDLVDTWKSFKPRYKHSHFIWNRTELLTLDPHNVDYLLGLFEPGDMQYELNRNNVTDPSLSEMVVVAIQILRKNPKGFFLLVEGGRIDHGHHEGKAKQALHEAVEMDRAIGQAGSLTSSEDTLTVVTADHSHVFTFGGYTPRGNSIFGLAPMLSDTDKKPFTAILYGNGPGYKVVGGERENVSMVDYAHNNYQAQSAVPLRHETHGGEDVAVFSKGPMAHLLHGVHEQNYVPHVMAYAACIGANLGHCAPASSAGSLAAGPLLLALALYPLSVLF

The target in experiment [5] is Peroxisome proliferator-activated receptor gamma/Nuclear receptor coactivator 2 (Homo sapiens, UniProt P37231). Put plainly: TR-FRET dose response biochemical High Throughput Screening assay for agonists of the steroid receptor coactivator 2 (SRC-2) recruitment by the peroxisome proliferator-activated receptor gamma (PPAR gamma): non-selective agonists. [Related pubchem assays: 1297, 1032 ]. The format is functional.

Experiment [6] deals with Peroxisome proliferator-activated receptor gamma/Nuclear receptor coactivator 3 (Homo sapiens, UniProt P37231). Put plainly: TR-FRET dose response biochemical High Throughput Screening assay for agonists of the steroid receptor coactivator 3 (SRC-3) recruitment by the peroxisome proliferator-activated receptor gamma (PPAR gamma): non-selective agonists. [Related pubchem assays: 1301 (Confirmation screen.), 1048 (Primary screen.)]. The format is functional.

Experiment [7] deals with Peroxisome proliferator-activated receptor gamma/Nuclear receptor coactivator 1 (Homo sapiens, UniProt P37231). Put plainly: TR-FRET dose response biochemical High Throughput Screening assay for agonists of the steroid receptor coactivator 1 (SRC-1) recruitment by the peroxisome proliferator-activated receptor gamma (PPAR gamma): non-selective agonists. [Related pubchem assays (depositor defined):AID1300, AID1808, AID504735, AID631]. The format is protein assay.

A short description of experiment [8]: Luminescence Cell-Based Dose Confirmation to Identify Activators of 5'UTR Stem-Loop Driven Alpha-Synuclein mRNA Translation in H4 Neuroglioblastoma Cells. [Related pubchem assays: 1829 (Project Summary), 1814 (Primary HTS)]. The format is functional.
Experiment [9] in a line: Luminescence Cell-Based Dose Response to Identify Activators of Luciferase Translation or Activity in H4-C Neuroglioblastoma Cells. [Related pubchem assays: 1829 (Project Summary), 1814 (Primary HTS)]. The format is functional.
Experiment [10] in a line: Luminescence Cell-Based Dose Response to Identify Activators of 5'UTR Stem-Loop Driven Prion Protein mRNA Translation in H4-C Neuroglioblastoma Cells. [Related pubchem assays: 1829 (Project Summary), 1814 (Primary HTS)]. The format is functional.
The test system of another experiment is H4. Put plainly: Luminescence Cell-Based Dose Response HTS to Identify Activators of 5'UTR Stem-Loop Driven Prion Protein mRNA Translation in H4 Neuroglioblastoma Cells. [Related pubchem assays: 1829 (Project Summary), 1814 (Primary HTS)]. The format is functional. The conditions noted are these: Homo sapiens.
Experiment [11] can be described thus: Luminescence Cell-Based Dose Retest to Confirm Inhibitors of Cancer Stem Cells. [Related pubchem assays (depositor defined):AID2717, AID2721]. Type of experiment: functional. The conditions noted are these: Homo sapiens.
The nature of experiment [12]: Luminescence Cell-Based Dose Response HTS to Identify Activators of Luciferase Translation or Activity in H4 […] Cells. [Related pubchem assays: 1829 (Project Summary), 1814 (Primary HTS)]. Type of experiment: functional.
A further experiment addresses Cytochrome P450 2D6 (Homo sapiens, UniProt P10635).
A further experiment has as its target T4, Hexokinase HKDC1 (Homo sapiens, UniProt Q2TB90).
T4 sequence (Q2TB90 whole entry): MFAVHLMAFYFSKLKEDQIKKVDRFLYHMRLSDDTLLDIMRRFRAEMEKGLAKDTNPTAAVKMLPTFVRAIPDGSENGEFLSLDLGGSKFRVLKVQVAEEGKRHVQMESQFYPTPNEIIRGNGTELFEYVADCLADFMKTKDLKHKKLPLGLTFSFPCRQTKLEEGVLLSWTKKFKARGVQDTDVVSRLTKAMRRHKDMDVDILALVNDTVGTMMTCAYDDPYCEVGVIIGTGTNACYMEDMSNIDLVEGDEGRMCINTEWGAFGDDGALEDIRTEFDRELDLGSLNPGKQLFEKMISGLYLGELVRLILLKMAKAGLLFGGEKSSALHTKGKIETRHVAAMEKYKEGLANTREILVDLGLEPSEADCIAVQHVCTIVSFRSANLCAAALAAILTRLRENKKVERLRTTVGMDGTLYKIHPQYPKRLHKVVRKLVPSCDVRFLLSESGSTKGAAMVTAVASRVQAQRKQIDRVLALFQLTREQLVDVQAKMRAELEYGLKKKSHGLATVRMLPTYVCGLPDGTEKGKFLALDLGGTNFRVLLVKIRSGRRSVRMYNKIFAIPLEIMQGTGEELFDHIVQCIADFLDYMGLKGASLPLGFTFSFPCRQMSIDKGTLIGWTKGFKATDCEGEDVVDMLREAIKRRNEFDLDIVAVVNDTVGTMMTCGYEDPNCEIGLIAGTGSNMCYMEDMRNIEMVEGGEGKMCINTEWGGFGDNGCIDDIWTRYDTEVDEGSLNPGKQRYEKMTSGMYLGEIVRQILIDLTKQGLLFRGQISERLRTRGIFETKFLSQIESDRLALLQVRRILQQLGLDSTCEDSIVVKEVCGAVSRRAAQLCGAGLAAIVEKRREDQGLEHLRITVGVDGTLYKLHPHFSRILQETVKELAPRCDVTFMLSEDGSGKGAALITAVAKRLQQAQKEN
Put plainly: inhibition of HKDC1 glucose phosphorylation – biochemical, W721R variant, dose response (AID 504729). Type of experiment: functional.

The nature of experiment [13]: luciferase reporter signal suppression in cells – H4 neuroglioma cells, luminescence, dose response (AID 1990). Type of experiment: functional, cell-based.
Experiment [14] in a line: Luminescence Cell-Based Dose Response HTS to Identify Inhibitors of 5'UTR Stem-Loop Driven Prion Protein mRNA Translation in H4 Neuroglioblastoma Cells. [Related pubchem assays: 1827 (Project Summary), 1813 (Primary HTS)]. Type of experiment: functional.
A short description of experiment [15]: alpha-synuclein stem-loop luciferase translation blockers – H4 neuroglioma cells, luminescence, confirmation (AID 1988). The format is functional, cell-based.
The target of experiment [16] is Potassium voltage-gated channel subfamily KQT member 2 (Rattus norvegicus, UniProt O88943, W236L). The experiment can be described thus: potentiation of rat KCNQ2 current – cell-based, automated electrophysiology, mechanism study for KCNQ2 potentiator project, dose response (AID 2603). The format is functional.
Chain of Potassium voltage-gated channel subfamily KQT member 2 (O88943 whole entry W236L): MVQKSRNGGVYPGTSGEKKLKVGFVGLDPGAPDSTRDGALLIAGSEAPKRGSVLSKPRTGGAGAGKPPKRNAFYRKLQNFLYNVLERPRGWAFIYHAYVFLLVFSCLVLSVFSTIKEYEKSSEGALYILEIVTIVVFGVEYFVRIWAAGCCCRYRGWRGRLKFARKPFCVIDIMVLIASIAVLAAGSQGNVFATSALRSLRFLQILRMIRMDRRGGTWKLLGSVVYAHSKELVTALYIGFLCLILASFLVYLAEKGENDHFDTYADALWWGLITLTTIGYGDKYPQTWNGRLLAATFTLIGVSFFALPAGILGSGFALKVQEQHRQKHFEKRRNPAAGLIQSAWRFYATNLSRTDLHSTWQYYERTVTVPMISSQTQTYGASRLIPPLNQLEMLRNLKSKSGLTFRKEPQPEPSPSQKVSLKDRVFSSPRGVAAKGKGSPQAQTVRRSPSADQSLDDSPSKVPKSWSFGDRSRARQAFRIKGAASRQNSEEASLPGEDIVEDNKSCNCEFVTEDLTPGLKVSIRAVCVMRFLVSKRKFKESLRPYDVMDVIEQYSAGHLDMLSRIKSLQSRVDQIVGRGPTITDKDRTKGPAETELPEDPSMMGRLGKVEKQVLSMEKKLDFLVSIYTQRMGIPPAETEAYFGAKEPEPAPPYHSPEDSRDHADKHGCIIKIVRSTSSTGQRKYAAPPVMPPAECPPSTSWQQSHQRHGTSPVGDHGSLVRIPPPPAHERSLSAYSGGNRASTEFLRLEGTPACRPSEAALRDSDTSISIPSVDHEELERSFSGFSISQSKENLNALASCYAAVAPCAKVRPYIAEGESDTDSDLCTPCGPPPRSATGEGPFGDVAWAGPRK

The source made the active and inactive calls. A value given as a limit tells only on which side of the number the result lay.

Chain of Cytochrome P450 2D6 (P10635 whole entry): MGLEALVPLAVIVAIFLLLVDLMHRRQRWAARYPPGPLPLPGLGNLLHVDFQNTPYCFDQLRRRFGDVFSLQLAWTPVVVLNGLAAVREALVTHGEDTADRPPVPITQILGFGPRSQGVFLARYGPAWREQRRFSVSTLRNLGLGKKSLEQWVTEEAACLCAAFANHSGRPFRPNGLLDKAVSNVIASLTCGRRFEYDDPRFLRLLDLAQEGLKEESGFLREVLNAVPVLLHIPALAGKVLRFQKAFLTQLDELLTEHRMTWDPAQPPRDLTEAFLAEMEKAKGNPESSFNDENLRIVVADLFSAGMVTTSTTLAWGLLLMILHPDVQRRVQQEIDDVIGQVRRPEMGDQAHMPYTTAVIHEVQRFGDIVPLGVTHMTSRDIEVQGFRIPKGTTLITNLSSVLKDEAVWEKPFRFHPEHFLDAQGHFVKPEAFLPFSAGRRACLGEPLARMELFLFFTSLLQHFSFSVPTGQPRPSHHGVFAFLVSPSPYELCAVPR

As for `S=c1[nH]c(SCc2ccccc2)nc2ccccc12`, the EC50 was 227 µM (active) in [1] and > 150 µM (not active) at Streptokinase A. In addition, the IC50 was 2.48 µM (active) in experiment [2] and > 39.8 µM (not active) in experiment [3].

With `COc1ccc(NC(=O)CSc2nc3ccccc3c3nc4ccccc4n23)cc1`, the EC50 in experiment [4] is listed as > 100 µM (not active).

`O=C(CSc1ncnc2c1oc1ccccc12)c1cccs1`: the EC50 in experiment [5] is > 8.82 µM (not active); in experiment [6], > 79.4 µM (not active); in [7] it was > 26.5 µM (inactive). In addition, the results for the IC50 in [2] and in experiment [3] were 15.3 µM (not active) and > 39.8 µM (not active), respectively.

`Cc1sc(NC(=O)C2CCCCC2)c(C#N)c1-c1ccccc1`: the EC50 in [8] is 174 nM (active); in experiment [9], 375 nM (active); in experiment [10] it was 689 nM (active); with H4, 7.76 µM (active); in experiment [12] it was < 100 nM (active). The AC50 in experiment [11] is 3.43 µM (active); on Cytochrome P450 2D6, 7.08 µM (inconclusive).

Turning to `O=C(CSc1n[nH]c(-c2cccnc2)n1)Nc1ccc([N+](=O)[O-])cc1Br`, the IC50 at Hexokinase HKDC1 was 5.92 µM (active).

Regarding `O=C(NCCc1ccccc1)c1cnn2c(C(F)F)cc(C3CC3)nc12`, the IC50 at Hexokinase HKDC1 was 5.5 µM (active). For the same compound, the concentration giving a half-maximal response (EC50) in [13], in experiment [14] and in experiment [15] was > 120 µM (not active) in each case.

Take `C#CCn1/c(=N/C(=O)CSC(C)=O)sc2cc(F)ccc21`: the EC50 in experiment [16] is 2.97 µM (active).

As to `Oc1c(Cl)cc(Cl)cc1/C=N/c1nccs1`, the concentration giving a half-maximal response (EC50) in [16] was 11.6 µM (active).
